The values below come from patent US20120157452A1, “1H-PYRAZOLO[3,4-B] PYRIDINE COMPOUNDS FOR INHIBITING RAF KINASE” (GENENTECH, INC., priority 2009, published 2012).

The IC50 is the point on the concentration scale where inhibition reaches its midpoint. A high value points to lower potency.

For the assay, the target named is T1, V600E full-length B-Raf (Homo sapiens, UniProt P15056, V600E).
T1 construct: made in house; host or cells: Sf9 insect cells (baculovirus)
The experiment in a line: B-Raf IC50 assay: incorporation of radio labeled phosphate from [γ-33P]ATP into FSBA-modified wild-type MEK. Type of assay: biochemical. An excerpt:
Determining the activity of Raf in the sample is possible by a number of direct and indirect detection methods (US 2004/0082014). Activity of human recombinant B-Raf protein may be assessed in vitro by assay of the incorporation of radio labeled phosphate to recombinant MAP kinase (MEK), a known physiologic substrate of B-Raf, according to US 2004/0127496 and WO 03/022840. The activity/inhibition of V600E full-length B-Raf was estimated by measuring the incorporation of radio labeled phosphate from [γ-^33]ATP into FSBA-modified wild-type MEK (see Biological Example 1).
Activity of human recombinant B-Raf protein may be assessed in vitro by assay of the incorporation of radio labeled phosphate to recombinant MAP kinase (MEK), a known physiologic substrate of B-Raf, according to US 2004/0127496 and WO 03/022840. Catalytically active human recombinant B-Raf protein is obtained by purification from sf9 insect cells infected with a human B-Raf recombinant baculovirus expression vector.
The activity/inhibition of V600E full-length B-Raf was estimated by measuring the incorporation of radio labeled phosphate from [γ-^33]ATP into FSBA-modified wild-type MEK. The 30-μL, assay mixtures contained 25 mM Na Pipes, pH 7.2, 100 mM KCl, 10 mM MgCl2, 5 mM β-glycerophosphate, 100 μM Na Vanadate, 4 μM ATP, 500 nCi [γ-^33P]ATP, 1 μM FSBA-MEK and 20 nM V600E full-length B-Raf. Incubations were carried out at 22° C. in a Costar 3365 plate (Corning). Prior to the assay, the B-Raf and FSBA-MEK were preincubated together in assay buffer at 1.5× (20 μL of 30 nM and 1.5 μM, respectively) for 15 minutes, and the assay was initiated by the addition of 10 μL of […]. Following the 60-minute incubation, the assay mixtures were quenched by the addition of 100 μL of 25% TCA, the plate was mixed on a rotary shaker for 1 minute, and the product was captured on a Perkin-Elmer GF/B filter plate using a Tomtec Mach III Harvester. After sealing the bottom of the plate, 35 μL of Bio-Safe II (Research Products International) scintillation cocktail were added to each well and the plate was top-sealed and counted in a Topcount NXT (Packard).

Where [1] appears, read: 4 μM ATP, 60-minute incubation, representative data of multiple tests.

T1 sequence (P15056 whole entry V600E): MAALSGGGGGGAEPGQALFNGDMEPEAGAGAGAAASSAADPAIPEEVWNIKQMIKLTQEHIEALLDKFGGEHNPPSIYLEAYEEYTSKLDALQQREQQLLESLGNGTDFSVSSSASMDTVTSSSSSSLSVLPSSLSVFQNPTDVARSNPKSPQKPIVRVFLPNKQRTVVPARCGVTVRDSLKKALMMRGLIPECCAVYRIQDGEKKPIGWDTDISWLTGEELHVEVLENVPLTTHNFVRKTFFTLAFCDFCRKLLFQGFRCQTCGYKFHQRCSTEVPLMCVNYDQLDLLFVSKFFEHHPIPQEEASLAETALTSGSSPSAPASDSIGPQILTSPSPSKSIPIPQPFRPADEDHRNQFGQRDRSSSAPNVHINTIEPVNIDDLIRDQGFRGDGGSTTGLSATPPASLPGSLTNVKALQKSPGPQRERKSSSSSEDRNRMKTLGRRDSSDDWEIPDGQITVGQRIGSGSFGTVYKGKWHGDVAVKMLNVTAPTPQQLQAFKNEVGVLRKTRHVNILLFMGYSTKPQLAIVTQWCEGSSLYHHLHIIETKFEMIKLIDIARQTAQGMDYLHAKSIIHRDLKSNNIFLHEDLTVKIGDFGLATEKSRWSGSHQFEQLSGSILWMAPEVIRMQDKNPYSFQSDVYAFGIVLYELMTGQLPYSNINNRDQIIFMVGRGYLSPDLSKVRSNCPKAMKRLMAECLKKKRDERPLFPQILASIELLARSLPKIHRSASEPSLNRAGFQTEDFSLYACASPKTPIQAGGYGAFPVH

For `COc1n[nH]c2ncc(NC(=O)c3c(Cl)ccc(OC(C)c4ccccc4)c3F)cc12` (stereo not drawn) [Example 67, 6-chloro-2-fluoro-N-(3-methoxy-1H-pyrazolo[3,4-b]pyridin-5-yl)-3-(1-phenylethoxy)benzamide], the IC50 reads like this: under setting [1], 61 nM; (bound stated) below 100 nM.
`COc1n[nH]c2ncc(NC(=O)c3c(Cl)ccc(OCc4cc(C)on4)c3F)cc12` [Example 61, 6-chloro-2-fluoro-N-(3-methoxy-1H-pyrazolo[3,4-b]pyridin-5-yl)-3-((5-methylisoxazol-3-yl)methoxy)benzamide]: the IC50 runs as follows: under setting [1], 80.1 nM; (bound stated) below 100 nM.
For `COc1n[nH]c2ncc(NC(=O)c3c(Cl)ccc(OCc4ccco4)c3F)cc12` [Example 54, 6-chloro-2-fluoro-3-(furan-2-ylmethoxy)-N-(3-methoxy-1H-pyrazolo[3,4-b]pyridin-5-yl)benzamide] the same measures were 3.36 nM and below 100 nM.
As for `COc1n[nH]c2ncc(NC(=O)c3c(Cl)ccc(OCc4ccc5c(c4)OCO5)c3F)cc12` [Example 63, 3-(benzo[d][1,3]dioxol-5-ylmethoxy)-6-chloro-2-fluoro-N-(3-methoxy-1H-pyrazolo[3,4-b]pyridin-5-yl)benzamide], the IC50 under setting [1] came to 1.71 nM and the IC50 (bound stated) was below 100 nM.
For `COc1n[nH]c2ncc(NC(=O)c3c(Cl)ccc(OCc4ccccc4F)c3F)cc12` [Example 3, 6-chloro-2-fluoro-3-(2-fluorobenzyloxy)-N-(3-methoxy-1H-pyrazolo[3,4-b]pyridin-5-yl)benzamide] the same measures were 0.44 nM and below 100 nM.
On to `COc1n[nH]c2ncc(NC(=O)c3c(Cl)ccc(OCc4cncnc4)c3F)cc12` [Example 68, 6-chloro-2-fluoro-N-(3-methoxy-1H-pyrazolo[3,4-b]pyridin-5-yl)-3-(pyrimidin-5-ylmethoxy)benzamide], for which the IC50 under setting [1] was 658 nM.
`COc1n[nH]c2ncc(NC(=O)c3c(C)ccc(OCc4ccccc4)c3F)cc12` [Example 5, 3-(benzyloxy)-2-fluoro-N-(3-methoxy-1H-pyrazolo[3,4-b]pyridin-5-yl)-6-methylbenzamide] came in with an IC50 under setting [1] of 1.06 nM and an IC50 (bound stated) below 100 nM.
`O=C(Nc1cnc2[nH]nc(OCCO)c2c1)c1c(Cl)ccc(OCc2ccccc2)c1F` [Example 15, 3-(benzyloxy)-6-chloro-2-fluoro-N-(3-(2-hydroxyethoxy)-1H-pyrazolo[3,4-b]pyridine-5-yl)benzamide] showed a half-maximal inhibitory concentration (IC50) under setting [1] of 2.63 nM and an IC50 (bound stated) below 100 nM.
In the case of `CN(C)c1n[nH]c2ncc(NC(=O)c3c(Cl)ccc(OCc4ccccc4)c3F)cc12` [Example 7, 3-(benzyloxy)-6-chloro-N-(3-(dimethylamino)-1H-pyrazolo[3,4-b]pyridin-5-yl)-2-fluorobenzamide], the IC50 is, setting by setting: under setting [1], 4.76 nM; (bound stated) below 100 nM.
As for `O=C(Nc1cnc2[nH]nc(-c3ccco3)c2c1)c1c(Cl)ccc(OCc2ccccc2)c1F` [Example 9, 3-(benzyloxy)-6-chloro-2-fluoro-N-(3-(furan-2-yl)-1H-pyrazolo[3,4-b]pyridin-5-yl)benzamide], the IC50 was 1.17 nM under setting [1] and below 100 nM (bound stated).
Take `COc1n[nH]c2ncc(NC(=O)c3c(Cl)ccc(OCc4csc(C)n4)c3F)cc12` [Example 59, 6-chloro-2-fluoro-N-(3-methoxy-1H-pyrazolo[3,4-b]pyridin-5-yl)-3-((2-methylthiazol-4-yl)methoxy)benzamide]: half-maximal inhibition under setting [1] (IC50) required 10.6 nM and the IC50 (bound stated) is below 100 nM.
In the same order, the values of `COc1n[nH]c2ncc(NC(=O)c3c(Cl)ccc(OCc4ccccc4)c3Cl)cc12` [Example 25, 3-(benzyloxy)-2,6-dichloro-N-(3-methoxy-1H-pyrazolo[3,4-b]pyridin-5-yl)benzamide] are 12.3 nM and below 100 nM.
Take `O=C(Nc1cnc2[nH]nc(OCCF)c2c1)c1c(Cl)ccc(OCc2ccccc2)c1F` [Example 18, 3-(benzyloxy)-6-chloro-2-fluoro-N-(3-(2-fluoroethoxy)-1H-pyrazolo[3,4-b]pyridine-5-yl)benzamide]: the IC50 is 0.82 nM under setting [1] and below 100 nM (bound stated).
In the same order, the values of `CCc1ccc(COc2ccc(Cl)c(C(=O)Nc3cnc4[nH]nc(OC)c4c3)c2F)cc1` [Example 55, 6-chloro-3-(4-ethylbenzyloxy)-2-fluoro-N-(3-methoxy-1H-pyrazolo[3,4-b]pyridin-5-yl)benzamide] are 1.47 nM and below 100 nM.
For the compound `COc1n[nH]c2ncc(NC(=O)c3c(Cl)ccc(OCc4ccc(C)cn4)c3F)cc12` [Example 44, 6-chloro-2-fluoro-N-(3-methoxy-1H-pyrazolo[3,4-b]pyridin-5-yl)-3-((5-methylpyridin-2-yl)methoxy)benzamide], the IC50 is, setting by setting: under setting [1], 0.64 nM; (bound stated) below 100 nM.
On to `COc1n[nH]c2ncc(NC(=O)c3c(Cl)ccc(OCc4ccncc4)c3F)cc12` [Example 39, 6-chloro-2-fluoro-N-(3-methoxy-1H-pyrazolo[3,4-b]pyridin-5-yl)-3-(pyridin-4-ylmethoxy)benzamide], for which the IC50 is 64.2 nM under setting [1] and below 100 nM (bound stated).
As for `COc1n[nH]c2ncc(NC(=O)c3c(C)ccc(OCc4ccc(F)cc4)c3F)cc12` [Example 71, 2-fluoro-3-(4-fluorobenzyloxy)-N-(3-methoxy-1H-pyrazolo[3,4-b]pyridin-5-yl)-6-methylbenzamide], 0.66 nM corresponded to half-maximal inhibition under setting [1] (IC50) and the IC50 (bound stated) was below 100 nM.
The compound `COc1n[nH]c2ncc(NC(=O)c3c(C)ccc(OCc4ccc(Cl)cc4)c3F)cc12` [Example 72, 3-(4-chlorobenzyloxy)-2-fluoro-N-(3-methoxy-1H-pyrazolo[3,4-b]pyridin-5-yl)-6-methylbenzamide] yielded an IC50 under setting [1] of 0.4 nM and an IC50 (bound stated) below 100 nM.
Regarding `COc1n[nH]c2ncc(NC(=O)c3c(Cl)ccc(OCc4ccc5ncccc5c4)c3F)cc12` [Example 69, 6-chloro-2-fluoro-N-(3-methoxy-1H-pyrazolo[3,4-b]pyridin-5-yl)-3-(quinolin-6-ylmethoxy)benzamide], the IC50 is 1.66 nM under setting [1] and below 100 nM (bound stated).
Take `COc1n[nH]c2ncc(NC(=O)c3c(Cl)ccc(OCc4ccc(C)nc4)c3F)cc12` [Example 46, 6-chloro-2-fluoro-N-(3-methoxy-1H-pyrazolo[3,4-b]pyridin-5-yl)-3-((6-methylpyridin-3-yl)methoxy)benzamide]: the IC50 was 6.09 nM under setting [1] and below 100 nM (bound stated).
On to `COc1n[nH]c2ncc(NC(=O)c3c(Cl)ccc(OCc4cccnc4)c3F)cc12` [Example 36, 6-chloro-2-fluoro-N-(3-methoxy-1H-pyrazolo[3,4-b]pyridin-5-yl)-3-(pyridin-3-ylmethoxy)benzamide], for which the IC50 is 37.5 nM under setting [1] and below 100 nM (bound stated).
In the same order, the values of `COc1n[nH]c2ncc(NC(=O)c3c(Cl)ccc(OCc4cscn4)c3F)cc12` [Example 37, 6-chloro-2-fluoro-N-(3-methoxy-1H-pyrazolo[3,4-b]pyridin-5-yl)-3-(thiazol-4-ylmethoxy)benzamide] are 3.8 nM and below 100 nM.
In the same order, the values of `COc1ccc(COc2ccc(Cl)c(C(=O)Nc3cnc4[nH]nc(OC)c4c3)c2F)cc1` [Example 56, 6-chloro-2-fluoro-N-(3-methoxy-1H-pyrazolo[3,4-b]pyridin-5-yl)-3-(4-methoxy-benzyloxy)benzamide] are 1.31 nM and below 100 nM.
